Laboratory results from article PMC8631675, “Neuroprotective effects of some epigenetic modifying drugs’ on Chlamydia pneumoniae-induced neuroinflammation: A novel model” (PLoS ONE, 2021).
Read-outs that look alike come from different tables or passages of the source.

Tests used:
HMC3 microglia cells = assay: Cell proliferation (cytotoxicity) analysis with xCELLigence, HMC3; format: cell-based, human; conditions: for IC50: Homo sapiens
Experimental: (§1) Cell proliferation analysis was performed with xCELLigence Real-Time Cell Analysis System to assess TSA, RG108, givinostat, and rifampin concentrations for use in both models. Differentiated SH-SY5Y and HMC3 microglia cells were seeded at a 5x10^3 density per well and incubated 24 h until CI values reached a log phase. The system stopped at the end of 24 h, 100, 10 and 1 μM TSA, givinostat, RG108 and rifampin were applied on current media and the cell viability was tracked. […] Simultaneously, slope plots were drawn using the CI values at 24 and 48 hours, and the statistical significance of the values discovered by assuming the average CI values of the control wells to be 100% was calculated.

[1] = tested on: differentiated SH-SY5Y cells; assay: Cell proliferation (cytotoxicity) analysis with xCELLigence, SH-SY5Y; format: cell-based, human; conditions: for IC50: Homo sapiens, SH-SY5Y
Experimental: as §1

[2] = tested on: differentiated SH-SY5Y cells; assay: Cell viability against Aβ-induced neurotoxicity, xCELLigence; format: cell-based, human; conditions: 24 h pretreatment (drugs 100 nM; CFS 1 μg/ml + IFN-γ; LPS 100 ng/ml + IFN-γ), then 5 μM Aβ (1–42) aggregates 24 h
Experimental: Pathological deterioration in AD is mainly associated with overproduction of the Aβ peptide and the Aβ (1–42) variant is the toxic form that is more predominant in Alzheimer’s patients. In this study, a modified oligomeric Aβ (1–42) neurotoxicity analysis protocol was applied in order to elucidate the effects of treatment groups on SH-SY5Y cell viability in the presence of Aβ [56]. In order to model Aβ-induced neurotoxicity in vitro, an oligomeric form of the Aβ1–42 peptide was prepared by diluting with ice-cold Ham’s F12 Nutrient Mixture medium dissolved in PBS containing 0.02 M NaOH at a final concentration of 50 μM and kept in a 37°C incubator for 7 days to form peptide aggregates prior to the experiments. 5x10^3 SH-SY5Y cells were differentiated inside the xCELLigence instrument for 5 days and treated with 100 nM TSA, RG108, givinostat, rifampin; 100 ng/ml LPS+IFN-ɣ or 1 μg/ml CFS+IFN-ɣ for 24 h in order to evaluate neuroprotection. The co-culture was performed in the same way as the neuroinflammation model. Neurotoxicity was obtained instead of neuroinflammation by diluting to 5 μM with fresh medium and adding Aβ1–42 aggregates to the wells for 24 h in 100 μl of medium. Cell viability data was then monitored for 24 h and analyzed within the instrument.

[3] = tested on: differentiated SH-SY5Y cells; assay: Annexin V-PI staining of Aβ-induced cell death, flow cytometry; format: cell-based, human; conditions: pretreatment (drugs 100 nM; LPS 100 ng/ml + IFN-γ; CFS 1 μg/ml + IFN-γ) + 5 μM Aβ 24 h
Experimental: To determine neuronal apoptosis associated with Aβ exposure, 25x10^3 differentiated SH-SY5Y cells were seeded in 24-well plates and Aβ was applied. After 24 h, cells were trypsinized and staining was performed according to the CF 488A Annexin V and PI Apoptosis Kit (Biotium, USA, Cat. No: 30061) protocol. After washing the cells with 1xPBS, the working solution was prepared by diluting the PI with Annexin V binding buffer included in the kit. 5 μl Annexin V and 2 μl PI working solution were added to the centrifuge tubes and binded with 100 μl Annexin V binding buffer. After the samples were incubated for 30 minutes on ice and in the dark, 400 μl of Annexin V binding buffer was added to each tube and the samples were measured and analyzed in a BD Accuri™ C6 flow cytometry device.

SH-SY5Y cells = assay: Total ROS/Superoxide detection; format: cell-based, human
Experimental: The Total ROS/Superoxide Detection Kit (ENZ-51010, Enzo) was used according to the kit process for evaluating the protective effects of the treatment groups on SH-SY5Y cells seeded at a 2x10^4 density per well in 96-well plates and Aβ was applied. ROS inhibitor N-acetyl cysteine (NAC) was applied at 5 mM concentration to negative control groups 30 minutes before the experiment and after incubation, 100 μL of “ROS/Superoxide Detection Solution” was added to the wells in the kit. The same procedure was done without the application of ROS inhibitor. Fluorometric analysis of stained cells was analyzed with Cytation 3 Cell Imaging Multi-Mode Reader (BioTek) using 490/525 nm and 550/620 nm filter sets.

mutated COS-7 cells = tested on: mutated COS-7 cells; set-up: method as in PMID 27020329; conditions: mutated COS-7 cells expressing amyloid precursor protein; cited from earlier work
[4] = tested on: low density lipoprotein receptor-related protein 1 (LRP-1) and P-glycoprotein (P-gp); set-up: method as in PMID 22504320; conditions: by upregulating LRP-1 and P-gp; cited from earlier work
IL-1β gene expression = assay: RT-PCR IL-1β gene expression in HMC3 microglia cells; format: cell-based, human; conditions: 24 h
Experimental: (§2) LPS and/or proinflammatory cytokines like IFN-ɣ, have been used alone or in combination in most in vitro neuroinflammation models to study microglial activation. Therefore, the effects of lyophilized cell free supernatant (CFS)+IFN-ɣ combination, which was determined to increase IL-1β and CD218a cytokine levels most effectively, on IL-1β, TNF-α and IL-8 gene expressions were compared with LPS+IFN-ɣ combination in order to determine the activation concentration.
(§3) RNA isolations were performed in MagNA Pure Compact System (Roche, Germany) using MagNA Pure Compact RNA Isolation Kit® (Catalog No: 04802993001, Roche, Germany) after 24-h. The total RNA amounts of the samples were measured at 260 and 280 nm in the NanoDrop 2000® (Thermo Fisher, USA) spectrophotometer. cDNA was obtained using the Transcriptor High Fidelity cDNA Synthesis Kit® (Catalog no: 05091284001, Roche, Germany) following the kit protocol from […] RNA of each sample. After the cDNA samples were replicated by PCR method, the expression levels were determined with the LightCycler® 480 Real-Time PCR System (Roche, Germany) using the IL-1β, TNF-α and IL-8 primers (PRZ BioTech, Turkey). Actin beta (ACTB) was used as a housekeeping gene. Primer sequences and RT-PCR cycling conditions are shown in S1 and S2 Tables. Results were analyzed according to the changes in the amplification levels compared to the control group with the analysis software of the instrument.

TNF-α gene expression = assay: RT-PCR TNF-α gene expression in HMC3 microglia cells; format: cell-based, human; conditions: 24 h
Experimental: as §2, §3

IL-8 gene expression = assay: RT-PCR IL-8 gene expression in HMC3 microglia cells; format: cell-based, human; conditions: 24 h
Experimental: as §2, §3

CD11b = assay: Active microglia marker CD11b in HMC3 cells by flow cytometry; format: cell-based, human; conditions: 24 hours, control 10.1%
Experimental: HMC3 microglia cells were seeded in 12-well plates at a density of 75x10^3 cells per well and treated with treatment groups for 24 h. Then, cells were detached and centrifuged with Cell Staining Buffer (BioLegend, USA, Cat. No: 420201) for 5 minutes and the supernatant was discarded. Blocking was performed with 5 μl Human TruStain Fcx (BioLegend, USA, Cat. No: 422302) Fc receptor blocker solution diluted in 100 μl Cell Staining Buffer for 10 minutes at room temperature to reduce non-specific binding. The blocker was removed by centrifugation and the cells were stained with 5 μl PE anti-mouse/human CD11b Antibody (BioLegend, USA, Cat. No: 101208) diluted 1:5 in 20 μl Cell Staining Buffer for 15 minutes on ice in the dark. Then, the cells were washed 2 times with 2 ml Cell Staining Buffer and analyzed within 500 μl buffer using the BD Accuri ™ C6 flow cytometer.

SH-SY5Y cell = tested on: SH-SY5Y cell; set-up: method as in PMID 31837307, PMID 32087283; conditions: LPS alone; cited from earlier work
[5] = HMC3, 10 ng/ml + 10 ng/ml IFN-ɣ
[6] = HMC3, 100 ng/ml + 10 ng/ml IFN-ɣ

With `CO[C@H]1/C=C/O[C@@]2(C)Oc3c(C)c(O)c4c(O)c(c(/C=N/N5CCN(C)CC5)c(O)c4c3C2=O)NC(=O)/C(C)=C\C=C\[C@H](C)[C@H](O)[C@@H](C)[C@@H](O)[C@@H](C)[C@H](OC(C)=O)[C@@H]1C` [Rifampin, rifampin] the “Reduction of HMC3 cell viability compared to the control group” value (“Reduction of HMC3 cell viability” below) (HMC3 microglia cells; 10 μM, 24 hours) was 12.72%, the “Reduction of HMC3 cell viability” value (HMC3 microglia cells; 10 μM, 48 hours) was 17.79% and the “Reduction of HMC3 cell viability” value (HMC3 microglia cells; 100 μM, 24 hours) was 15.74%. The “Reduction of HMC3 cell viability” value (HMC3 microglia cells; 100 μM, 48 hours) was 28.72%, the IC50 (HMC3 microglia cells; HMC3, 24 h, from CI values at 24th hour, 1, 10 and 100 μM tested, read-out: IC50 Values 24h HMC3) was 33.2 µM and the IC50 (HMC3 microglia cells; HMC3, 48 h, from CI values at 48th hour, 1, 10 and 100 μM tested, read-out: IC50 Values 48h HMC3) was 31 µM. For the same compound, the “Reduction of differentiated SH-SY5Y cell viability” value ([1]; 1 μM, 24 hours) was 30.28%, the “Reduction of differentiated SH-SY5Y cell viability” value ([1]; 1 μM, 48 hours) was 17.16% and the “Reduction of differentiated SH-SY5Y cell viability” value ([1]; 10 μM, 24 hours) was 46.98%. The “Reduction of differentiated SH-SY5Y cell viability” value ([1]; 10 μM, 48 hours) was 25%, the “Reduction of differentiated SH-SY5Y cell viability” value ([1]; 100 μM, 24 hours) was 97.24% and the “Reduction of differentiated SH-SY5Y cell viability” value ([1]; 100 μM, 48 hours) was 98.61%. The IC50 ([1]; 24 h, from CI values at 24th hour, 1, 10 and 100 μM tested, read-out: IC50 Values 24h SH-SY5Y) was over 400 µM, the IC50 ([1]; 48 h, from CI values at 48th hour, 1, 10 and 100 μM tested, read-out: IC50 Values 48h SH-SY5Y) was 64.4 µM and the “CI values compared to the control group” value [2] was 120.7%. The “Necrotic effect (Q5-UL)” value ([3]; control 1.6%) was 8.1%, the “Apoptotic effect (early apoptosis + late apoptosis)” value ([3]; control 1.9%) was 5.8% and the “Percentage of living cells (Live)” value ([3]; control 96.5%) was 86.2%. The “Increase of total amount of ROS compared to the control group, with NAC” value (SH-SY5Y cells; 30 minutes NAC 5 mM, treated (drugs 100 nM; LPS 100 ng/ml; CFS 1 μg/ml, with IFN-γ) prior to Aβ exposure) was 0.25%, the “Decrease of total ROS amount according to the Aβ group” value (SH-SY5Y cells; cells treated (drugs 100 nM; LPS 100 ng/ml; CFS 1 μg/ml, with IFN-γ) before exposure to Aβ, without NAC) was 43.14% and the “Increase of total amount of ROS compared to the control group” value (SH-SY5Y cells; cells treated (drugs 100 nM; LPS 100 ng/ml; CFS 1 μg/ml, with IFN-γ) before exposure to Aβ, without NAC, not significant) was 0.43%. For the same compound, the “Effect on Aβ, tau, and α-synuclein aggregation” value (mutated COS-7 cells) was “minimize Aβ, tau, and α-synuclein aggregation” and the “Effect on Aβ clearance” value [4] was “increasing Aβ clearance”.

For lipopolysaccharide [LPS], the “IL-1β expression level compared to the control group” value (IL-1β gene expression; [5]) was 1.64 fold, the “IL-1β expression level compared to the control group” value (IL-1β gene expression; [6]) was 3.21 fold and the “IL-1β expression level compared to the control group” value (IL-1β gene expression; HMC3, 1 μg/ml + 10 ng/ml IFN-ɣ) was 1.83 fold. For the same compound, the “TNF-α expression level compared to the control group” value (TNF-α gene expression; [5]) was 1.55 fold, the “TNF-α expression level compared to the control group” value (TNF-α gene expression; [6]) was 1.41 fold and the “TNF-α expression level compared to the control group” value (TNF-α gene expression; HMC3, 1 μg/ml + 10 ng/ml IFN-ɣ) was 0.82 fold. For the same compound, the “IL-8 expression level compared to the control group” value (IL-8 gene expression; [5]) was 3.07 fold, the “IL-8 expression level compared to the control group” value (IL-8 gene expression; [6]) was 3.88 fold and the “IL-8 expression level compared to the control group” value (IL-8 gene expression; HMC3, 1 μg/ml + 10 ng/ml IFN-ɣ) was 13.64 fold. For the same compound, the “CD11b antibody levels (positive gate V-R)” value (CD11b; [6]) was 42.4%, the “CD11b antibody levels (positive gate V-R)” value (CD11b; HMC3, 1 μg/ml + 10 ng/ml IFN-ɣ) was 23% and the “Effect on SH-SY5Y cell viability” value (SH-SY5Y cell) was “no effect”.
